Consider 34 molecules from ChEMBL document CHEMBL1157539, “Thousands of chemical starting points for antimalarial lead identification” (Nature, 2010).

This experiment has as its system Plasmodium falciparum. Description: GSK_TCMDC: Inhibition of Plasmodium falciparum 3D7 in whole erythrocytes, using parasite LDH activity as an index of growth. The experiment is classed as functional, organism-based. The following applies: Plasmodium falciparum, 3D7.

The molecule `Cc1cc(NC2CCN(CC3CCCCC3)C2)nc(Nc2ccc(Br)cc2)n1` (centres undefined) had an XC50 of 566 nM.
The molecule `Cc1cccc(OCCCCON2C(=N)N=C(N)NC2(C)C)c1C` returned an XC50 of 3.2 nM.
With `O=C(Nc1cccc(CN2CCCN(Cc3ccc(O)cc3)CC2)c1)c1ccc2ccccc2c1` the figure was 373 nM; with `CN1CCCC1CCOc1ccc2c(c1)N(C(=O)Nc1cc(Br)cc(C(F)(F)F)c1)CC2` (centres undefined), 247 nM; with `Cn1ncc2c3c(CCN4CCC(NCc5ccc6c(c5)NC(=O)CO6)CC4)c(Cl)cnc3ccc21`, 488 nM.
`COc1ccc(-c2cc3ncnc(N4CCN(CCN5CCCC5)CC4)c3s2)cc1` displayed an XC50 of 831 nM.
Molecule `COc1ccc(C2C(C(=O)Nc3cc(C)ccc3OC)c3ccccc3C(=O)N2C)cc1` (centres undefined) showed an XC50 of 982 nM.
Molecule `CCN1CCCC1CNC(=O)c1cc2c(-c3ccc(Cl)cc3)nn(C)c2s1` (centres undefined) gave an XC50 of 788 nM.
`Cc1[nH]c(C)c(-c2ccc(Oc3ccc(Cl)cc3)cc2)c(=O)c1C` showed an XC50 of 385 nM.
In turn, `COc1ccc(C2CCC(NCCCCNC(=O)c3ccc(NC(=O)c4ccc(Cl)cc4)cc3)CC2)cc1` (centres undefined) registered an XC50 of 627 nM.
The result for `CC(Cc1ccc(CNC(=O)c2ccc(CC(C)NCCc3cccc(Cl)c3)cc2)cc1)NCCc1cccc(Cl)c1` (centres undefined) reads 696 nM; that for `Cc1ccc(Cc2cccc3nc(N)nc(N)c23)cc1`, 1150 nM.
Take `O=C(Nc1cccc(-c2ccc(-c3nc4cc(C(F)(F)F)ccc4[nH]3)cc2)c1)c1ccoc1`: the XC50 is 714 nM.
The result for `c1cc(CN2CCN(c3ccncc3)CC2)cc(-c2ccc(-c3nc4ccccc4[nH]3)cc2)c1` reads 153 nM.
On to `CCOC(=O)c1ccc(NC(=O)NC2CCN(CCCCCNC(=O)/C=C/c3ccc(Cl)c(Cl)c3)C2)cc1` (centres undefined), for which the XC50 was 487 nM.
On to `CC1CC(C)CN(S(=O)(=O)c2cc(C(=O)Nc3cccc([N+](=O)[O-])c3)ccc2Br)C1` (centres undefined), for which the XC50 came out at 898 nM.
As to `CCCCCC(NCCCC)c1ccc(OCCOc2ccc(C(CCCCC)NCCCC)cc2)cc1` (centres undefined), the XC50 is 1240 nM.
With `COc1cc2c(Nc3cccc(NC(=O)c4ccccc4)c3)ncnc2cc1OCCCN1CCOCC1` the figure was 155 nM.
With `CCOc1ccc(-c2nonc2NC(=O)c2ccc(OC(C)C)cc2)cc1OCC` the figure was 601 nM; with `Fc1ccc2[nH]ccc(=NN=Cc3ccccc3Cl)c2c1`, 922 nM.
As to `Cc1ccc(-c2nnc(-c3ccc(C(=O)NC4CCN(Cc5ccc(C#N)cc5)CC4)cc3)o2)cc1Br`, the XC50 was determined as 852 nM.
The molecule `CC1(C)NC(N)=NC(=N)N1OCCCNC(=O)c1ccc([N+](=O)[O-])cc1` registered an XC50 of 3.2 nM.
The result for `CCCC(C)NC(=O)c1cnn(-c2ccc(C(C)(C)C)cc2)c1OCc1ccc(Br)cc1` (centres undefined) reads 1060 nM.
In turn, `COc1ccc2[nH]cc(C3CCN(Cc4ccc(NC(=O)c5ccc(-c6ccccc6)cc5)cc4)CC3)c2c1` returned an XC50 of 765 nM.
Molecule `O=C(NCc1ccccc1F)c1ccc(N2CCC(NCc3cccc(-n4cccn4)c3)CC2)cc1` came in with an XC50 of 1730 nM.
In the case of `O=C(Cn1cc(C(F)(F)F)cc(Cl)c1=O)N1CCN(S(=O)(=O)c2ccc(Cl)cc2)CC1`, the XC50 stood at 897 nM.
The result for `O=C(COc1ccccc1Cc1ccccc1)Nc1cc(Cl)ccc1-n1cncn1` reads 640 nM; that for `O=C(O)c1ccc2c(c1)N(C(=O)CNCc1ccc(F)cc1)CC(=O)N2CCCc1ccccc1`, 919 nM; that for `CC(C)c1ccc(CN2CCCCC(NC(=O)c3cc(-c4cccc(F)c4)cs3)C2)cc1` (centres undefined), 945 nM.
On to `O=C(/C=C/c1ccc(Cl)c(Cl)c1)NCCCCCN1CCC(NC(=O)Nc2cccc(C(F)(F)F)c2)CC1`, for which the XC50 came to 697 nM.
The result for `O=C(NCC1CCC(C(=O)O)CC1)c1ccc(/C=C/C(=O)N2CCc3ccccc3C2c2ccc3c(c2)OCO3)cc1` (centres undefined) reads 892 nM; that for `CN1CCN(CCNc2c3ccccc3nc3c2ccc2ccccc23)CC1`, 606 nM.
Take `COc1ccc2ncc(F)c(CCN3C[C@H](CNCc4cc(F)c5c(c4)NC(=O)CO5)[C@H](O)C3)c2n1`: the XC50 was found to be 667 nM.
Regarding `COc1ccc(S(=O)(=O)NC2CCN(CCNC(=O)Nc3cc(C)nc4ccccc34)C2)cc1` (centres undefined), the XC50 was determined as 1190 nM.
